*1 amine or outer side, *2 acyl side, *3 side chain or, on linkers, in order; H or OH if unused. Where a SMILES comes first, the peptide text is derived from it. Side-chain parts run from the residue outwards. [ ]: non-standard residue; d: D form. The star is where a group is joined. C20 diacid = O=C(O)CCCCCCCCCCCCCCCCCCC(=O)*; γGlu = O=C(O)[C@H](CCC(=O)[*:2])N[*:1]; αMeF = C[C@](N)(Cc1ccccc1)C(=O)O; 4Pal = N[C@@H](Cc1ccncc1)C(=O)O; αMeL = CC(C)C[C@](C)(N)C(=O)O; Orn = NCCC[C@H](N)C(=O)O; AEEA = NCCOCCOCC(=O)O; Aib = CC(C)(N)C(=O)O
Experiments:
Assay in all cases: cAMP functional assay (HTRF) in HEK293 cells in presence of 0.1% casein
Format in all cases: cell-based
[1] = biological target: T1, human GLP-1 receptor (GLP-1R) (Homo sapiens, UniProt P43220); conditions: HEK293 cells expressing human GLP-1R, geometric mean, read-out: hGLP1R cAMP Rel EC50 nM (SEM, n)
T1 construct: expressed in transfected cells; host or cells: HEK293
T1 sequence (P43220 24-463): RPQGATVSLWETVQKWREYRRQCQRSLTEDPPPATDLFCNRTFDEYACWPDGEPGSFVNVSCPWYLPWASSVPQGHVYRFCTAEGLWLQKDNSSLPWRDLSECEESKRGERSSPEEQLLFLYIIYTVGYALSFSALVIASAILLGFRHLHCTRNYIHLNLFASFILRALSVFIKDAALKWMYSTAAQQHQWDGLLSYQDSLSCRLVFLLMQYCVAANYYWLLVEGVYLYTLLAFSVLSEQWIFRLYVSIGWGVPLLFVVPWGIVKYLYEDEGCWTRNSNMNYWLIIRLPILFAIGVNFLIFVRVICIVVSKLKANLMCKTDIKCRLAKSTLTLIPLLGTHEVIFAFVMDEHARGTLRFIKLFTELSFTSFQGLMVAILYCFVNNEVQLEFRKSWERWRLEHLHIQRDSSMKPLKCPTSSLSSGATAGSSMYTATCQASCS

[2] = biological target: T2, human glucagon receptor (GcgR) (Homo sapiens, UniProt P47871); conditions: HEK293 cells expressing human GcgR, geometric mean, read-out: hGcgR cAMP Rel EC50 nM (SEM, n)
T2 construct: expressed in transfected cells; host or cells: HEK293
T2 sequence (P47871 26-477): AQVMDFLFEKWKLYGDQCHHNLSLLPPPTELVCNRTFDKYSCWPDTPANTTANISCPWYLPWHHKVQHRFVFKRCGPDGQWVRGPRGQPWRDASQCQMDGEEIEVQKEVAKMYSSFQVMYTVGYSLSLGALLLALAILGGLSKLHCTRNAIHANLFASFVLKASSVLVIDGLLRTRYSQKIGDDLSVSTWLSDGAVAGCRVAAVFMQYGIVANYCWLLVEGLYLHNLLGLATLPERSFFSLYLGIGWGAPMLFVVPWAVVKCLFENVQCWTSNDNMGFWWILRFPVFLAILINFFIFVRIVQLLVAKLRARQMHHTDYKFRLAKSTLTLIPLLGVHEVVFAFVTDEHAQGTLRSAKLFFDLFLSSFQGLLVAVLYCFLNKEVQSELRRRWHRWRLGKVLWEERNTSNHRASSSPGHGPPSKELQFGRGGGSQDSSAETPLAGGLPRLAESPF

[3] = biological target: T3, human glucose-dependent insulinotropic peptide receptor (GIPR) (Homo sapiens, UniProt P48546); conditions: HEK293 cells expressing human GIPR, geometric mean, read-out: hGIPR cAMP Rel EC50 nM (SEM, n)
T3 construct: expressed in transfected cells; host or cells: HEK293
T3 sequence (P48546 22-466): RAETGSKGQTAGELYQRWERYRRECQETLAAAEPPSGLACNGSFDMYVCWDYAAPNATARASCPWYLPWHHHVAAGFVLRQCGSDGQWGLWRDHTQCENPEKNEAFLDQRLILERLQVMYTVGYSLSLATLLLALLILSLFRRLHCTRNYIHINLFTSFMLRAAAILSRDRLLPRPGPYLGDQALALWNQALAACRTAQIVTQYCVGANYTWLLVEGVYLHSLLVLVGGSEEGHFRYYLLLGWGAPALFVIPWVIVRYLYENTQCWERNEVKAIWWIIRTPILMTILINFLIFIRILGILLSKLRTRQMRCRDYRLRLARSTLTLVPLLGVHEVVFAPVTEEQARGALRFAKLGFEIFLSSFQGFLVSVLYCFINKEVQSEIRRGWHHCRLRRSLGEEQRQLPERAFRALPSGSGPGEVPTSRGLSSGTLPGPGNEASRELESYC

Compound	EC50 [1] [nM]	EC50 [2] [nM]	EC50 [3] [nM]
CC[C@H](C)[C@H](NC(=O)[C@H](Cc1ccccc1)NC(=O)[C@@H](NC(=O)CNC(=O)[C@H](CCC(=O)O)NC(=O)C(C)(C)NC(=O)[C@@H](N)Cc1ccc(O)cc1)[C@@H](C)O)C(=O)N[C@@H](CO)C(=O)N[C@@H](CC(=O)O)C(=O)N[C@@H](Cc1ccc(O)cc1)C(=O)N[C@@H](CO)C(=O)N[C@H](C(=O)N[C@@](C)(CC(C)C)C(=O)N[C@@H](CC(C)C)C(=O)N[C@@H](CC(=O)O)C(=O)N[C@@H](CCCN)C(=O)N[C@@H](CCCCNC(=O)COCCOCCNC(=O)COCCOCCNC(=O)CC[C@H](NC(=O)CCCCCCCCCCCCCCCCCCC(=O)O)C(=O)O)C(=O)N[C@@H](Cc1c[nH]cn1)C(=O)N[C@@H](CCC(N)=O)C(=O)NC(C)(C)C(=O)N[C@@H](CC(=O)O)C(=O)N[C@@H](Cc1ccccc1)C(=O)N[C@H](C(=O)N[C@@H](CCC(=O)O)C(=O)N[C@@H](Cc1ccncc1)C(=O)N[C@@H](CC(C)C)C(=O)N[C@@H](CC(C)C)C(=O)N[C@@H](CCC(=O)O)C(=O)N[C@H](C(=O)NCC(=O)N1CCC[C@H]1C(=O)N[C@@H](CO)C(=O)N[C@@H](CO)C(=O)NCC(=O)N[C@@H](C)C(=O)N1CCC[C@H]1C(=O)N1CCC[C@H]1C(=O)N1CCC[C@H]1C(=O)N[C@@H](CO)C(N)=O)[C@@H](C)O)C(C)C)[C@@H](C)CC [Example 80] (H-Y[Aib]EGTFISDYSI[αMeL]LD[Orn]K([AEEA-AEEA-γGlu-C20 diacid])HQ[Aib]DFVE[4Pal]LLETGPSSGAPPPS-NH2)	> 5000	> 5000	0.0777
CC[C@H](C)[C@H](NC(=O)[C@H](CO)NC(=O)[C@H](Cc1ccc(O)cc1)NC(=O)[C@H](CC(=O)O)NC(=O)[C@H](CO)NC(=O)[C@@H](NC(=O)[C@](C)(Cc1ccccc1)NC(=O)[C@@H](NC(=O)CNC(=O)[C@H](CCC(=O)O)NC(=O)C(C)(C)NC(=O)[C@@H](N)Cc1ccc(O)cc1)[C@@H](C)O)[C@@H](C)CC)C(=O)N[C@@H](C)C(=O)N[C@@H](CC(C)C)C(=O)N[C@@H](CC(=O)O)C(=O)N[C@@H](CCCCN)C(=O)N[C@H](C(=O)N[C@@H](Cc1c[nH]cn1)C(=O)N[C@@H](CCC(N)=O)C(=O)NC(C)(C)C(=O)N[C@@H](CCC(=O)O)C(=O)N[C@@H](Cc1ccccc1)C(=O)N[C@H](C(=O)N[C@@H](CC(N)=O)C(=O)N[C@@H](Cc1ccc(O)cc1)C(=O)N[C@@H](CCCCNC(=O)COCCOCCNC(=O)COCCOCCNC(=O)CC[C@H](NC(=O)CCCCCCCCCCCCCCCCCCC(=O)O)C(=O)O)C(=O)N[C@@H](CC(C)C)C(=O)N[C@@H](C)C(=O)NCC(=O)NCC(=O)N1CCC[C@H]1C(=O)N[C@@H](CO)C(=O)N[C@@H](CO)C(=O)NCC(=O)N[C@@H](C)C(=O)N1CCC[C@H]1C(=O)N1CCC[C@H]1C(=O)N1CCC[C@H]1C(=O)N[C@@H](CO)C(N)=O)C(C)C)[C@@H](C)CC [Example 97] (H-Y[Aib]EGT[αMeF]ISDYSIALDKIHQ[Aib]EFVNYK([AEEA-AEEA-γGlu-C20 diacid])LAGGPSSGAPPPS-NH2)	2510	> 5000	0.009
